According to paper PMC7355964, “Enhancement in Oral Absorption of Ceftriaxone by Highly Functionalized Magnetic Iron Oxide Nanoparticles” (Pharmaceutics, 2020):
“Also recorded” adds a separate entry of the source.

How the values were obtained:
[1] = In vivo oral pharmacokinetics studies; design: species or system Rabbits (Oryctolaguscuniculus); conditions: rabbit, oral CFT aqueous solution
Experimental: The availability of CFT and internal standard cephalexin (CEP) in plasma was determined through reverse phase HPLC protocol developed and validated in our laboratories. The protein precipitation method was taken into account for extracting drug from plasma. Plasma (200 µL) containing both drugs was blended and vortexed with ACN (400 µL) for 2 min and the precipitate was separated by centrifugation at 15,483 G for 10 min. The acquired supernatant was concentrated in vacuum and reconstituted in buffer (TBAH, 100 µL; pH 7.0). A volume of 25 µL was injected into the HPLC system Shimadzu, LC20A (Shimadzu, Kyoto, Japan) equipped with a purospher C18 (5 µm, 250 × 4.6 mm) column. The mobile phase was comprised of ACN and TBAH buffer (0.005 M, pH 7.0) in a ratio of 25:75. The flow rate was adjusted to 1 mL/min, and the wavelength selected was 220 nm.
Animal studies were conducted under institutional guidelines by following the principals of institutional animal care. The studies were approved by the Ethics Committee of International Center for Chemical and Biological Sciences, University of Karachi (Project identification code ICCBS/CBSCR/IEC-014/2018; approved date 06-04-2018). All animals were healthy and purchased for Dow University of Health Sciences OJHA campus Karachi, Pakistan. Rabbits (Oryctolaguscuniculus) with 1.2 kg normal body weight were chosen for the assessment of oral in vivo pharmacokinetics studies. Rabbits were held under standard quarantine conditions with free access to food and water for 12 h. Before conducting the in vivo studies, rabbits were kept under fasting conditions but with free access to water. Rabbits were divided into three distinct categories (n = 4). The first category was given CFT-MIH-MNPs suspension at 25 mg/kg body weight portion. Rabbits of the second and third categories were provided with CFT in oral aqueous solution at 25 and 50 mg/kg body weight. Blood samples (1mL) were collected via marginal ear vein using an insulin plastic syringe at various intervals within 24 h. After centrifugation at 2688 G for 10 min, plasma was acquired and stored at –20 °C. Pharmacokinetics parameters were assessed by linear trapezoidal standard using a non-compartmental model from individual drug plasma concentrations with reference to a time curve for CFT after oral administration of nanoformulation and controls separately. The estimations of maximum drug plasma concentration (Cmax) and time to reach maximum plasma concentration (Tmax) were obtained from the drug plasma concentration curves. These parameters were utilized to ascertain the pharmacokinetics parameters area under the curve from zero to last quantifiable value (AUC0-24), mean residence time (MRT) and clearance (Cl).

[2] = design: method as in PMID 23143633; conditions: ref [35]; cited from earlier work

SMILES: CO/N=C(\C(=O)N[C@@H]1C(=O)N2C(C(=O)O)=C(CSc3nc(=O)c(=O)[nH]n3C)CS[C@H]12)c1csc(N)n1 [CFT, Ceftriaxone]
- Cmax ([1]; albino, plasma, 50 mg/kg): 2000 ± 600 ng/mL
- MRT ([1]; albino, plasma, 50 mg/kg): 8.4 ± 0.1 h
- Tmax ([1]; albino, plasma, 50 mg/kg): 1.5 h
- AUC(0-t) ([1]; albino, plasma, 50 mg/kg, read-out: AUC0-24): 16100 ± 3700 ng·h/mL
- CFT detection in blood plasma (HPLC) ([1]; 25 mg/kg): no drug was detected; also recorded: no detection of CFT in the blood plasma
- Clearance ([1]; 50 mg/kg): 3.91 ± 0.4 L/h
- Volume distribution ([1]; 50 mg/kg): 33.0 ± 1.94 L
- Clearance ([1]; 50 mg/kg, listed as CFT Solution): 3.9 ± 0.4 L/h
- pH (early neutral pH) [2]: about 6.7
